In patent US11337996B2 (priority 2012, dated 2022):
“And” between values parts separate entries of the source, which are not always exact repeats. Identical values can stand only once. “Also recorded” adds a separate entry of the source. Like-named read-outs stand apart in the source and are kept apart here. Marks after values point to notes of the source that are not given here.

Legend:
[1] = test system: IL8, LITAF, TNFSF15, IL-6, iNOS, IL-1β expression; design: species or system broiler chickens (Ross/Ross); settings: in vivo
[2] = test system: Clostridium perfringens (CPP) and aflatoxin; design: species or system Cobb 500 chicks; settings: in vivo
α-toxin antigen = settings: in vivo
[3] = test system: Clostridium perfringens pathogen (CPP) + 1 ppm aflatoxin B1; design: species or system Cobb 500 chicks; settings: in vivo
[4] = test system: Clostridium perfringens (CP); type: in vivo, chickens
E. maxima = test system: E. maxima; design: species or system chickens; settings: in vivo
NetB toxin antigen = settings: in vivo
[5] = design: species or system Cobb 500 chicks; settings: in vivo
[6] = test system: Clostridium perfringens pathogen (CPP) without and with Aflatoxin; design: species or system Cobb 500 chicks; settings: in vivo
[7] = test system: IL8, LITAF, IL-6, iNOS, TNFSF15 expression; design: species or system broiler chickens (Ross/Ross); settings: in vivo
[8] = test system: Clostridium perfringens pathogen (CPP); type: in vivo, Cobb 500 chicks; settings: CPP Challenge
Clostridium perfringens = type: in vivo, broiler chicken (Cobb X Cobb); settings: infect

Substance: virginiamycin [VM]
- TNFSF15 expression [1]: decreased
- iNOS expression [1]: decreased
- feed conversion [2]: improved; also recorded: greatest improvement at 1.5 ppm
- feed intake [2]: improved
- gain [2]: improved; also recorded: higher gain that those birds not fed VM; also recorded: helps improve gain; also recorded: not at 1.5 ppm AFL
- lesion scores [2]: increased
- mortality [2]: decreased
- antibodies to α-toxin (optical density) (α-toxin antigen): notable increases
- serum antibody levels against α-toxin (α-toxin antigen): significantly higher
- Feed Conversion Ratio Day 0-24 [3]: 1.38^abcd
- Feed Conversion Ratio Day 10-24 [3]: 1.43^ab
- Feed intake, g Day 0-10 [3]: 20.0^efg
- Feed intake, g Day 0-24 [3]: 41.7^f g
- Feed intake, g Day 10-24 [3]: 58.7^g
- Gain, g Day 0-10 [3]: 166^cd g
- Gain, g Day 0-24 [3]: 788^f g
- Gain, g Day 10-24 [3]: 622^f g
- Lesions Day 20 [3]: 1.150^a
- Mortality, % Day 0-10 [3]: 0.63^ef %
- Mortality, % Day 10-24 [3]: 0.63^bc %
- gain [3]: higher gains than adding NP
- Feed Conversion Day 0-21 ([4]; CP): 1.746 ^bcdef
- Feed Conversion Day 0-28 ([4]; CP): 1.706 ^bcd
- Feed Conversion Day 14-21 ([4]; CP): 1.566 ^d
- Feed Conversion Day 14-28 ([4]; CP): 1.563 ^bcd
- Weight Gain Day 0-21 ([4]; CP): 0.511 ^bcd
- Weight Gain Day 0-28 ([4]; CP): 0.742 ^b
- Weight Gain Day 14-21 ([4]; CP): 0.295 ^bcd
- Weight Gain Day 14-28 ([4]; CP): 0.526 ^bcd
- Lesion Score ([4]; CP, 0 to 3 score): 0.2^cd
- Necrotic Enteritis Mortality, % ([4]; CP, listed as Virginiamycin): 6.3^bc %
- Necrotic Enteritis Mortality, % ([4]; CP, listed as virginiamycin): significantly better than no product
- Rank (lesion score, necrotic enteritis mortality, d 14-28 weight gain and feed conversion ratio) ([4]; Table A, birds with a Clostridium perfringens challenge): 1
- reduction of disease, in words ([4]; in vivo): numerically the best
- Feed Conversion Day 0-21 (E. maxima): 1.676 ^ef
- Feed Conversion Day 0-28 (E. maxima): 1.604 ^e
- Feed Conversion Day 14-21 (E. maxima): 1.550 ^d
- Feed Conversion Day 14-28 (E. maxima): 1.480 ^d
- Lesion Score (E. maxima): 0.0^d
- Necrotic Enteritis Mortality, % (E. maxima): 0.0^c %
- Weight Gain Day 0-21 (E. maxima): 0.569 ^ab
- Weight Gain Day 0-28 (E. maxima): 0.845 ^a
- Weight Gain Day 14-21 (E. maxima): 0.325 ^a
- Weight Gain Day 14-28 (E. maxima): 0.601 ^a
- serum antibody levels against the NetB toxin antigen (NetB toxin antigen): higher
- serum antibody response against NetB toxin antigen (NetB toxin antigen): increased
- Feed Conversion Ratio Day 0-10 [5]: 1.28^b
- Feed Conversion Ratio Day 0-24 [5]: 1.34^ef
- Feed intake, g Day 0-10 [5]: 22.6^ab g
- Feed intake, g Day 10-24 [5]: 72.2^abc g and 72.2^abe g
- Gain, g Day 0-10 [5]: 180^a g
- Gain, g Day 0-24 [5]: 983^a g
- Gain, g Day 10-24 [5]: 804^a g
- Mortality, % Day 0-10 [5]: 0^f %
- Mortality, % Day 10-24 [5]: 0.63^bc %
- performance [5]: improved performance
- Daily Feed Intake, g 0-10 d [6]: 21.2^a g
- Daily Feed Intake, g 0-24 d [6]: 47.6^ab g
- Daily Feed Intake, g 10-24 d [6]: 68.2^b g
- FCR (F:G) 0-10 d [6]: 1.24^c
- FCR (F:G) 0-24 d [6]: 1.35^b
- FCR (F:G) 10-24 d [6]: 1.39^b
- Gain, g 0-10 d [6]: 173^a g
- Gain, g 0-24 d [6]: 917^a g
- Gain, g 10-24 d [6]: 744^a g
- Lesion Score at d-20 [6]: 0.767
- Mortality, % 0-10 d [6]: 0.42^c %
- Mortality, % 10-24 d [6]: 0.63%
- IL8 expression [7]: decreased
- IL-6 expression [7]: generally decreased
- LITAF expression [7]: decreased
- iNOS expression [7]: generally decreased
- Feed Conversion Ratio Day 0-10 [8]: 1.22^b
- Feed Conversion Ratio Day 0-24 [8]: 1.33^f
- Feed Conversion Ratio Day 10-24 [8]: 1.36^e
- Feed intake, g Day 0-10 [8]: 20.9^cde g
- Feed intake, g Day 0-24 [8]: 50.5^a g
- Feed intake, g Day 10-24 [8]: 73.6^a g
- Gain, g Day 0-10 [8]: 174^ab g
- Gain, g Day 0-24 [8]: 980^a g
- Gain, g Day 10-24 [8]: 806^a g
- Lesions Day 20 [8]: 1.025^a
- Mortality, % Day 0-10 [8]: 0.63^ef %
- Mortality, % Day 10-24 [8]: 0.63^bc %
- Gain, g Day 10-24 ([8]; listed as virginiamycin): improved gain compared to the diet with no product
- % NE Mortality (Clostridium perfringens): 1.6 bc %
- Feed Consumption D0-21 (Clostridium perfringens): 4.733 b
- Feed Consumption D0-28 (Clostridium perfringens): 6.313 b
- Feed Consumption D14-21 (Clostridium perfringens): 2.312 c
- Feed Consumption D14-28 (Clostridium perfringens): 2.891 bc
- Feed Conversion D0-21 (Clostridium perfringens): 1.947 bc
- Feed Conversion D0-28 (Clostridium perfringens): 1.929 bc
- Feed Conversion D14-21 (Clostridium perfringens): 1.752 c
- Feed Conversion D14-28 (Clostridium perfringens): 1.797 c
- Weight Gain D0-21 (Clostridium perfringens): 0.316 b
- Weight Gain D14-21 (Clostridium perfringens): 0.171 a
- Weight Gain D14-28 (Clostridium perfringens): 0.367 b
- NE (0-3) Lesion Score (Clostridium perfringens; DOT 21): 0.5 ab
